Test results reported in US20080103205A1, “Pesticidal compositions and methods of use” (priority 2006, published 2008).
Where two headings read alike, the source gives them in different places.

Legend:
Meloidogyne incognita = assay: Toxicity test, J2 juveniles of Meloidogyne incognita, 96 well micro plate; assay type: in vivo; settings: for mortality at 50 ppm / mortality at 100 ppm / mortality at 200 ppm / mortality at 300 ppm / mortality at 400 ppm: Meloidogyne incognita
Experimental: (§1) Methodology: Toxicity tests were conducted using J2 juveniles of Meloidogyne incognita adult Caenorhabditis elegans collected from nematode-infested tomato plant roots and culture Petri plates, respectively. Test concentrations of 50, 100, 200, 300, or 400 ppm were prepared in 0.2% dimethylsulfoxide (DMSO) in tap water. Aliquots (300 microliters (ul)) were applied to a 96 well micro plate and a 20 ul aqueous solution containing nematodes was added. The number of nematodes in 20 ul ranged from 17 to 30. Micro plates were sealed with Parafilm™ and incubated at room temperature. Similar tests conducted with 0.2% DMSO in tap water served as controls. Nematode mortality was checked at 24, 48, 72, 120, and 168 hr after incubation. Nematodes that were motionless for 30 sec when observed under a stereomicroscope were considered paralyzed and included in mortality counts. Each concentration was replicated five times and mean percent mortality was calculated after correcting for control mortality using Abbott's formula.
(§2) Data Analysis: Mortality data were analyzed using PROC PROBIT (SAS) program and LC50 values were estimated.

Caenorhabditis elegans = assay: Toxicity test, adult Caenorhabditis elegans, 96 well micro plate; assay type: in vivo; settings: for mortality at 50 ppm / mortality at 100 ppm / mortality at 200 ppm / mortality at 300 ppm / mortality at 400 ppm: Caenorhabditis elegans
Experimental: as §1, §2

[1] = 24 hr, read-out: Corrected Mortality (%)
[2] = 48 hr, read-out: Corrected Mortality (%)
[3] = 72 hr, read-out: Corrected Mortality (%)
[4] = 120 hr, read-out: Corrected Mortality (%)
[5] = 120 hr, read-out: Mortality (%)
[6] = 168 hr, read-out: Corrected Mortality (%)
[7] = 168 hr, read-out: Mortality (%)

O=S(=O)(O)c1cc(N=C=S)ccc1/C=C/c1ccc(N=C=S)cc1S(=O)(=O)O [DIDS, trans-4,4′-diisothiocyanatostilbene-2,2′-disulfonic acid, reference compound] was tested, and the “LC50 (ppm)” value (Meloidogyne incognita; Day 2) was 356 ppm, the “LC50 (ppm)” value (Meloidogyne incognita; Day 3) was 36 ppm and the “LC50 (ppm)” value (Meloidogyne incognita; Day 5) was 20 ppm. The “LC50 (ppm)” value (Meloidogyne incognita; Day 7) was 4 ppm, the mortality at 50 ppm (Meloidogyne incognita; [1]) was 9% and the mortality at 50 ppm (Meloidogyne incognita; 24 hr, read-out: Mortality (%)) was 11%. It also gave a mortality at 50 ppm (Meloidogyne incognita; [2]) of 36%, a mortality at 50 ppm (Meloidogyne incognita; 48 hr, read-out: Mortality (%)) of 39% and a mortality at 50 ppm (Meloidogyne incognita; [3]) of 56%. It also gave a mortality at 50 ppm (Meloidogyne incognita; 72 hr, read-out: Mortality (%)) of 59%, a mortality at 50 ppm (Meloidogyne incognita; [4]) of 73% and a mortality at 50 ppm (Meloidogyne incognita; [5]) of 75%. For the same compound, the mortality at 50 ppm (Meloidogyne incognita; [6]) was 98%, the mortality at 50 ppm (Meloidogyne incognita; [7]) was 98% and the mortality at 100 ppm (Meloidogyne incognita; [1]) was 16%. The mortality at 100 ppm (Meloidogyne incognita; 24 hr, read-out: Mortality (%)) was 18%, the mortality at 100 ppm (Meloidogyne incognita; [2]) was 39% and the mortality at 100 ppm (Meloidogyne incognita; 48 hr, read-out: Mortality (%)) was 41%. For the same compound, the mortality at 100 ppm (Meloidogyne incognita; [3]) was 61%, the mortality at 100 ppm (Meloidogyne incognita; 72 hr, read-out: Mortality (%)) was 64% and the mortality at 100 ppm (Meloidogyne incognita; [4]) was 84%. It also gave a mortality at 100 ppm (Meloidogyne incognita; [5]) of 85%, a mortality at 100 ppm (Meloidogyne incognita; [6]) of 99% and a mortality at 100 ppm (Meloidogyne incognita; [7]) of 99%. For the same compound, the mortality at 200 ppm (Meloidogyne incognita; [1]) was 19%, the mortality at 200 ppm (Meloidogyne incognita; 24 hr, read-out: Mortality (%)) was 21% and the mortality at 200 ppm (Meloidogyne incognita; [2]) was 43%. For the same compound, the mortality at 200 ppm (Meloidogyne incognita; 48 hr, read-out: Mortality (%)) was 45%, the mortality at 200 ppm (Meloidogyne incognita; [3]) was 67% and the mortality at 200 ppm (Meloidogyne incognita; 72 hr, read-out: Mortality (%)) was 69%. The mortality at 200 ppm (Meloidogyne incognita; [4]) was 90%, the mortality at 200 ppm (Meloidogyne incognita; [5]) was 91% and the mortality at 200 ppm (Meloidogyne incognita; [6]) was 100%. The mortality at 200 ppm (Meloidogyne incognita; [7]) was 100%, the mortality at 300 ppm (Meloidogyne incognita; [1]) was 20% and the mortality at 300 ppm (Meloidogyne incognita; 24 hr, read-out: Mortality (%)) was 22%. For the same compound, the mortality at 300 ppm (Meloidogyne incognita; [2]) was 46%, the mortality at 300 ppm (Meloidogyne incognita; 48 hr, read-out: Mortality (%)) was 48% and the mortality at 300 ppm (Meloidogyne incognita; [3]) was 77%. For the same compound, the mortality at 300 ppm (Meloidogyne incognita; 72 hr, read-out: Mortality (%)) was 79%, the mortality at 300 ppm (Meloidogyne incognita; [4]) was 96% and the mortality at 300 ppm (Meloidogyne incognita; [5]) was 96%. The mortality at 300 ppm (Meloidogyne incognita; [6]) was 100%, the mortality at 300 ppm (Meloidogyne incognita; [7]) was 100% and the mortality at 400 ppm (Meloidogyne incognita; [1]) was 22%. The mortality at 400 ppm (Meloidogyne incognita; 24 hr, read-out: Mortality (%)) was 24%, the mortality at 400 ppm (Meloidogyne incognita; [2]) was 55% and the mortality at 400 ppm (Meloidogyne incognita; 48 hr, read-out: Mortality (%)) was 57%. It also gave a mortality at 400 ppm (Meloidogyne incognita; [3]) of 78%, a mortality at 400 ppm (Meloidogyne incognita; 72 hr, read-out: Mortality (%)) of 89% and a mortality at 400 ppm (Meloidogyne incognita; [4]) of 100%. For the same compound, the mortality at 400 ppm (Meloidogyne incognita; [5]) was 100%, the mortality at 400 ppm (Meloidogyne incognita; [6]) was 100% and the mortality at 400 ppm (Meloidogyne incognita; [7]) was 100%. It also gave a mortality at 50 ppm (Caenorhabditis elegans; [1]) of 14%, a mortality at 50 ppm (Caenorhabditis elegans; 24 hr, read-out: Mortality (%)) of 16% and a mortality at 50 ppm (Caenorhabditis elegans; [2]) of 34%. It also gave a mortality at 50 ppm (Caenorhabditis elegans; 48 hr, read-out: Mortality (%)) of 36%, a mortality at 50 ppm (Caenorhabditis elegans; [3]) of 56% and a mortality at 50 ppm (Caenorhabditis elegans; 72 hr, read-out: Mortality (%)) of 58%. It also gave a mortality at 50 ppm (Caenorhabditis elegans; [4]) of 74%, a mortality at 50 ppm (Caenorhabditis elegans; [5]) of 76% and a mortality at 50 ppm (Caenorhabditis elegans; [6]) of 98%. The mortality at 50 ppm (Caenorhabditis elegans; [7]) was 98%, the mortality at 100 ppm (Caenorhabditis elegans; [1]) was 18% and the mortality at 100 ppm (Caenorhabditis elegans; 24 hr, read-out: Mortality (%)) was 20%. For the same compound, the mortality at 100 ppm (Caenorhabditis elegans; [2]) was 43%, the mortality at 100 ppm (Caenorhabditis elegans; 48 hr, read-out: Mortality (%)) was 45% and the mortality at 100 ppm (Caenorhabditis elegans; [3]) was 68%. It also gave a mortality at 100 ppm (Caenorhabditis elegans; 72 hr, read-out: Mortality (%)) of 69%, a mortality at 100 ppm (Caenorhabditis elegans; [4]) of 88% and a mortality at 100 ppm (Caenorhabditis elegans; [5]) of 89%. For the same compound, the mortality at 100 ppm (Caenorhabditis elegans; [6]) was 100%, the mortality at 100 ppm (Caenorhabditis elegans; [7]) was 100% and the mortality at 200 ppm (Caenorhabditis elegans; [1]) was 22%. It also gave a mortality at 200 ppm (Caenorhabditis elegans; 24 hr, read-out: Mortality (%)) of 24%, a mortality at 200 ppm (Caenorhabditis elegans; [2]) of 44% and a mortality at 200 ppm (Caenorhabditis elegans; 48 hr, read-out: Mortality (%)) of 46%. The mortality at 200 ppm (Caenorhabditis elegans; [3]) was 77%, the mortality at 200 ppm (Caenorhabditis elegans; 72 hr, read-out: Mortality (%)) was 77% and the mortality at 200 ppm (Caenorhabditis elegans; [4]) was 97%. It also gave a mortality at 200 ppm (Caenorhabditis elegans; [5]) of 97%, a mortality at 200 ppm (Caenorhabditis elegans; [6]) of 100% and a mortality at 200 ppm (Caenorhabditis elegans; [7]) of 100%. The mortality at 300 ppm (Caenorhabditis elegans; [1]) was 20%, the mortality at 300 ppm (Caenorhabditis elegans; 24 hr, read-out: Mortality (%)) was 22% and the mortality at 300 ppm (Caenorhabditis elegans; [2]) was 52%. It also gave a mortality at 300 ppm (Caenorhabditis elegans; 48 hr, read-out: Mortality (%)) of 53%, a mortality at 300 ppm (Caenorhabditis elegans; [3]) of 81% and a mortality at 300 ppm (Caenorhabditis elegans; 72 hr, read-out: Mortality (%)) of 83%. The mortality at 300 ppm (Caenorhabditis elegans; [4]) was 100%, the mortality at 300 ppm (Caenorhabditis elegans; [5]) was 99% and the mortality at 300 ppm (Caenorhabditis elegans; [6]) was 100%. The mortality at 300 ppm (Caenorhabditis elegans; [7]) was 100%, the mortality at 400 ppm (Caenorhabditis elegans; [1]) was 23% and the mortality at 400 ppm (Caenorhabditis elegans; 24 hr, read-out: Mortality (%)) was 25%. The mortality at 400 ppm (Caenorhabditis elegans; [2]) was 58%, the mortality at 400 ppm (Caenorhabditis elegans; 48 hr, read-out: Mortality (%)) was 59% and the mortality at 400 ppm (Caenorhabditis elegans; [3]) was 90%. For the same compound, the mortality at 400 ppm (Caenorhabditis elegans; 72 hr, read-out: Mortality (%)) was 90%, the mortality at 400 ppm (Caenorhabditis elegans; [4]) was 100% and the mortality at 400 ppm (Caenorhabditis elegans; [5]) was 100%. The mortality at 400 ppm (Caenorhabditis elegans; [6]) was 100%, the mortality at 400 ppm (Caenorhabditis elegans; [7]) was 100% and the “LC50 (ppm)” value (Caenorhabditis elegans; Day 2) was 237 ppm. For the same compound, the “LC50 (ppm)” value (Caenorhabditis elegans; Day 3) was 38 ppm, the “LC50 (ppm)” value (Caenorhabditis elegans; Day 5) was 27 ppm and the “LC50 (ppm)” value (Caenorhabditis elegans; Day 7) was 3 ppm.
